Data: ChEMBL document CHEMBL5303764, “Data for DCP probe BI-3812” (2023)

Tests used:
[1] = biological target: Tyrosine-protein kinase Lyn (Homo sapiens) (UniProt P07948); assay: LYN A Invitrogen Lab (UK) kinase screen (BI); details: Compound concentration 1.0 uM
[2] = biological target: voltage-gated Na+ channel (site 2) (Rattus norvegicus, UniProt F1LQQ7+O08562+O88420+O88457+P04774+P04775+P08104+P15389+P15390+Q62968); assay: NA+/SITE2/R Eurofins SafetyScreen44 (BI); assay type: protein assay; details: rat brain, probe [3H]batrachotoxinin, compound concentration 10 uM, read-out: % Ctrl
[3] = biological target: Muscarinic acetylcholine receptor M1 (Homo sapiens) (UniProt P11229); details: Compound concentration 10.0 uM
Muscarinic acetylcholine receptor M1 (Homo sapiens), sequence (P11229 whole entry): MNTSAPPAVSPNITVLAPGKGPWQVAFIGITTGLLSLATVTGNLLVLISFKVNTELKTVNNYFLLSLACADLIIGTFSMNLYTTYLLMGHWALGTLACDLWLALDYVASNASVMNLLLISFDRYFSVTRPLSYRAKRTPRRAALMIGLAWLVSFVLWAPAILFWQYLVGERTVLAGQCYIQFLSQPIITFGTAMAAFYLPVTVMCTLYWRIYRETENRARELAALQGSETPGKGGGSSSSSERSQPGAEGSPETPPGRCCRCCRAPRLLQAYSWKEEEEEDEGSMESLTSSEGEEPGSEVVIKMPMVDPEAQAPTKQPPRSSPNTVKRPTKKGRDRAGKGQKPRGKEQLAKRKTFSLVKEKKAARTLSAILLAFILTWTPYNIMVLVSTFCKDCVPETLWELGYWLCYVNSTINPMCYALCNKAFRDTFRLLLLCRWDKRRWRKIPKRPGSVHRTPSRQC

[4] = biological target: Protein kinase C alpha type (Homo sapiens) (UniProt P17252); assay: PRKCA Invitrogen Lab (UK) kinase screen (BI); details: Compound concentration 1.0 uM
[5] = biological target: Phosphatidylinositol 4,5-bisphosphate 3-kinase catalytic subunit gamma isoform (Homo sapiens) (UniProt P48736); assay: PIK3CG Invitrogen Lab (UK) kinase screen (BI); details: Compound concentration 1.0 uM
[6] = biological target: Muscarinic acetylcholine receptor M1 (Homo sapiens) (UniProt P11229); assay: M1/H Eurofins SafetyScreen44 (BI); details: Compound concentration 10.0 uM
[7] = biological target: Serine/threonine-protein kinase PAK 4 (Homo sapiens) (UniProt O96013); assay: PAK4 Invitrogen Lab (UK) kinase screen (BI); details: Compound concentration 1.0 uM
Serine/threonine-protein kinase PAK 4 (Homo sapiens), sequence (O96013 whole entry, looked up): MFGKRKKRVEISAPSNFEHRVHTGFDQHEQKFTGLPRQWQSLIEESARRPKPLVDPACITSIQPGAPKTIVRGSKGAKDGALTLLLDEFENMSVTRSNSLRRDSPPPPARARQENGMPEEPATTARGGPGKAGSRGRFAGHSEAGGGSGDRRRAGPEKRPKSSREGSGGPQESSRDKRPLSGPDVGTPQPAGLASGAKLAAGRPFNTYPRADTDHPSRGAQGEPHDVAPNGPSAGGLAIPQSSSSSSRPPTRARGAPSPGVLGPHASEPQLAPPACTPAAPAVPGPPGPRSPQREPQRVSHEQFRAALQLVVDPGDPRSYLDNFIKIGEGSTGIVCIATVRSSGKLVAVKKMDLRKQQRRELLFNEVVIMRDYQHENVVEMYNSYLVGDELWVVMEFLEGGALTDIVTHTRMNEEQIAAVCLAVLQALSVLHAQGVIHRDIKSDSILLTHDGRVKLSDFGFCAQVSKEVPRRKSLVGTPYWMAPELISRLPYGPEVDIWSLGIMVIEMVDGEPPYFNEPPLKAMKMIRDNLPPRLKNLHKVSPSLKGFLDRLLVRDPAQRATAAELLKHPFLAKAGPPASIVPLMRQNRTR

[8] = biological target: Ribosomal protein S6 kinase beta-1 (Homo sapiens) (UniProt P23443); assay: RPS6KB1 Invitrogen Lab (UK) kinase screen (BI); details: Compound concentration 1.0 uM
Ribosomal protein S6 kinase beta-1 (Homo sapiens), sequence (P23443 whole entry, looked up): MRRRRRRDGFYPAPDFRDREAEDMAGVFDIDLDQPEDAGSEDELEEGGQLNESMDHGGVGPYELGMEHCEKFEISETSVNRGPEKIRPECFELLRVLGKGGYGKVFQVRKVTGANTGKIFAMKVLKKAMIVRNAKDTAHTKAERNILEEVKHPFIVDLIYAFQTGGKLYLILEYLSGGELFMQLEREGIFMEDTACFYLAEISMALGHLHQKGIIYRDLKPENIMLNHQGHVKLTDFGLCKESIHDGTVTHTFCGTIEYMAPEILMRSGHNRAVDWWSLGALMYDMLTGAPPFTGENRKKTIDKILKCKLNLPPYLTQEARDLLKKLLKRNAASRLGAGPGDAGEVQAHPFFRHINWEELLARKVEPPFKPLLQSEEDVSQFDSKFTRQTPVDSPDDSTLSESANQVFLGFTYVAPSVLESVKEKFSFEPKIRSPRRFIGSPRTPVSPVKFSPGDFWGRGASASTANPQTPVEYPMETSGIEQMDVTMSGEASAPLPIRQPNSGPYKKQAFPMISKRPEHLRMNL

[9] = biological target: Cannabinoid receptor 2 (Homo sapiens) (UniProt P34972); assay: CB2/PERIPH/H Eurofins SafetyScreen44 (BI); details: Compound concentration 10.0 uM
[10] = biological target: Delta-type opioid receptor (Homo sapiens) (UniProt P41143); assay: DELTA2/H Eurofins SafetyScreen44 (BI); details: Compound concentration 10.0 uM
Delta-type opioid receptor (Homo sapiens), sequence (P41143 whole entry): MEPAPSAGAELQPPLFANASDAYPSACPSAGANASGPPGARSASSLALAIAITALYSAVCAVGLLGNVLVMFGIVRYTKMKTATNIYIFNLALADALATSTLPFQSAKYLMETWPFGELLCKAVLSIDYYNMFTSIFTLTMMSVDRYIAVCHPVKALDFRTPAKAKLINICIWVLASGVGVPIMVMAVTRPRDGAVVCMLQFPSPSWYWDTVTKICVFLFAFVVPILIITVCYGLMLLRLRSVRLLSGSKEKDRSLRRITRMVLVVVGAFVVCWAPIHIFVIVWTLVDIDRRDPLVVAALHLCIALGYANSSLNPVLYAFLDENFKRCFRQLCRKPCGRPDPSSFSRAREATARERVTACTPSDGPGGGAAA

[11] = biological target: Mitogen-activated protein kinase kinase kinase 8 (Homo sapiens) (UniProt P41279); assay: MAP3K8 Invitrogen Lab (UK) kinase screen (BI); details: Compound concentration 1.0 uM
Mitogen-activated protein kinase kinase kinase 8 (Homo sapiens), sequence (P41279 whole entry): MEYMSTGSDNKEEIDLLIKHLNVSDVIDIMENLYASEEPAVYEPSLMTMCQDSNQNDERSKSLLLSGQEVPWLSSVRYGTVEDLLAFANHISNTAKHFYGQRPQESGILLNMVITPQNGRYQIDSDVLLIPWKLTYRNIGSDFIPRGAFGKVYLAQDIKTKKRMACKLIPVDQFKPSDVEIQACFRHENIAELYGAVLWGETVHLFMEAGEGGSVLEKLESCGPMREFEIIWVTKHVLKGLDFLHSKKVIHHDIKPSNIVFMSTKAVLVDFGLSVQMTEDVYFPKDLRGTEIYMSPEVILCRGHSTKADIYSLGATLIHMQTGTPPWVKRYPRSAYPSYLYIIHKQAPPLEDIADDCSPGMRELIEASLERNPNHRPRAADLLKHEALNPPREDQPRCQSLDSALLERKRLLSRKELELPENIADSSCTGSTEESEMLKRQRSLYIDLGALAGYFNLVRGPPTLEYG

[12] = biological target: Serine/threonine-protein kinase 3 (Homo sapiens) (UniProt Q13188); assay: STK3 Invitrogen Lab (UK) kinase screen (BI); details: Compound concentration 1.0 uM
Serine/threonine-protein kinase 3 (Homo sapiens), sequence (Q13188 whole entry): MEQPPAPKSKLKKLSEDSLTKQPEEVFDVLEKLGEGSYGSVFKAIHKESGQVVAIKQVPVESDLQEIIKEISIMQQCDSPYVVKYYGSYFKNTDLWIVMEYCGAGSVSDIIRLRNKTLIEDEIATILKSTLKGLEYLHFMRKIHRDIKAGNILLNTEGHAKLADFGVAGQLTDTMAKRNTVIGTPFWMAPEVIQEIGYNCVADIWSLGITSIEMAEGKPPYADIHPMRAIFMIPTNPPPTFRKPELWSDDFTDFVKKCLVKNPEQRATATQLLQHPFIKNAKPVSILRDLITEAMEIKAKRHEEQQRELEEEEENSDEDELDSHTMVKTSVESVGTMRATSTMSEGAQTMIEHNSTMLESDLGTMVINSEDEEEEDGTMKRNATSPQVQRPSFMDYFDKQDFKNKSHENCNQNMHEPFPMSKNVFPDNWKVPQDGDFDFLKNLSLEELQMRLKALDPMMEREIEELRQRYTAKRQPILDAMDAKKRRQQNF

[13] = biological target: Ribosomal protein S6 kinase alpha-3 (Homo sapiens) (UniProt P51812); assay: RPS6KA3 Invitrogen Lab (UK) kinase screen (BI); details: Compound concentration 1.0 uM
[14] = biological target: Histamine H4 receptor (Homo sapiens) (UniProt Q9H3N8); details: Compound concentration 10.0 uM
[15] = biological target: Epidermal growth factor receptor (Homo sapiens) (UniProt P00533); assay: EGFR Invitrogen Lab (UK) kinase screen (BI); details: Compound concentration 1.0 uM
Epidermal growth factor receptor (Homo sapiens), sequence (P00533 whole entry): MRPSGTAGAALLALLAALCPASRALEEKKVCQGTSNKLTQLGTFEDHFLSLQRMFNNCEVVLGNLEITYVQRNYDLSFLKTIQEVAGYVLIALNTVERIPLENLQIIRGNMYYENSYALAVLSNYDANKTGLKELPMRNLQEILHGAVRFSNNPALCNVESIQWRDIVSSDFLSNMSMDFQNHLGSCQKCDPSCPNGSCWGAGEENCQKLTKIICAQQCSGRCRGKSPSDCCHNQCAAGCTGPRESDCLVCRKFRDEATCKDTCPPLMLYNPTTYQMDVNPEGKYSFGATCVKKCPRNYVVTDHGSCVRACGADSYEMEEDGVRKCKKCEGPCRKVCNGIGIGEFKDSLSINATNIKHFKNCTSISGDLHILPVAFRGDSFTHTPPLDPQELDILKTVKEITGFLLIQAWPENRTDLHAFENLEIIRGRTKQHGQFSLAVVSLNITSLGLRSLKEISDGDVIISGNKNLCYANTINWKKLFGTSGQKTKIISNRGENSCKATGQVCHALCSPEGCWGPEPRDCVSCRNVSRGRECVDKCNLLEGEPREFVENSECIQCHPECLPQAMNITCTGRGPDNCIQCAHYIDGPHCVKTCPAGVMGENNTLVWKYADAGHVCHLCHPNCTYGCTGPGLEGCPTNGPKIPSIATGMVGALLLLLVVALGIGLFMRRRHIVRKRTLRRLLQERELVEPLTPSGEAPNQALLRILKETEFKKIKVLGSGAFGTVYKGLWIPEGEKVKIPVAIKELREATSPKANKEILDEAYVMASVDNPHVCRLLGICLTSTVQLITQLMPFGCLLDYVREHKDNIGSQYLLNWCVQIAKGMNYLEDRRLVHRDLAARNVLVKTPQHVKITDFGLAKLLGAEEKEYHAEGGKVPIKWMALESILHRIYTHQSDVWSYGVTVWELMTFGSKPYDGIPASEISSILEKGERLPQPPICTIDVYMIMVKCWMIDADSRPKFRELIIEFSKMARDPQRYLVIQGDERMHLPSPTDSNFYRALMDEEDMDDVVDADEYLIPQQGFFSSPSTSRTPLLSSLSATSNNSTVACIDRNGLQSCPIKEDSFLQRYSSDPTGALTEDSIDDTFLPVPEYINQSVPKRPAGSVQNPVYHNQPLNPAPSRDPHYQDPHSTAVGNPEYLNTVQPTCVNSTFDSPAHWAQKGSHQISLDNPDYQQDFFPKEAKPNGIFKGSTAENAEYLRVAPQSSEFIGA

[16] = biological target: 5-hydroxytryptamine receptor 1B (Homo sapiens) (UniProt P28222); assay: 5HT1B(H) Eurofins SafetyScreen44 (BI); details: filed as antagonist, Compound concentration 10.0 uM
5-hydroxytryptamine receptor 1B (Homo sapiens), sequence (P28222 whole entry): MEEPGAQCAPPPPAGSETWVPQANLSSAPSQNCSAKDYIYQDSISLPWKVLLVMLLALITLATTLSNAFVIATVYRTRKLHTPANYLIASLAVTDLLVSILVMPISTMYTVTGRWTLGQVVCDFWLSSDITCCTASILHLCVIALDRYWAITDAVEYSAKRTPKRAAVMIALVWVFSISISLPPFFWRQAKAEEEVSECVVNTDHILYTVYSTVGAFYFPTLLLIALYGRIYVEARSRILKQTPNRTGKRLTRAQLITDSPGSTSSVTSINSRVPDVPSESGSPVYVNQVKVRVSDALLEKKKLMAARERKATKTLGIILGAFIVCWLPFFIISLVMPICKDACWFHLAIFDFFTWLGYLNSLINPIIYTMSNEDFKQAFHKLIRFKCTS

Tyrosine-protein kinase Lyn (Homo sapiens), sequence (P07948 2-512 limits assumed): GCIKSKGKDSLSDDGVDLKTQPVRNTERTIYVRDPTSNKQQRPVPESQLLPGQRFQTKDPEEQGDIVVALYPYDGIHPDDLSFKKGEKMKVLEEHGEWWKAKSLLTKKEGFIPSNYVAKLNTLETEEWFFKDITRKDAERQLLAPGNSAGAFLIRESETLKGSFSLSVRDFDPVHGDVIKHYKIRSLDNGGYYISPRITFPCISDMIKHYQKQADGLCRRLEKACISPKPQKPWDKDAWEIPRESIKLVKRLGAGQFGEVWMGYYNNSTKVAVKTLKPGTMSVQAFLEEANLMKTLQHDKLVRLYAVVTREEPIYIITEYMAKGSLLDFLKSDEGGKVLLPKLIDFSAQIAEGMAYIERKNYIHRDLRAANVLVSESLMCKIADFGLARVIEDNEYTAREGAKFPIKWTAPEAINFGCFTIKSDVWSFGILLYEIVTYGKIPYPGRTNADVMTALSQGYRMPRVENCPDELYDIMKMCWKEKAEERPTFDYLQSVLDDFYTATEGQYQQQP

- residual activity [1]: 101%
- inhibition [3]: 12.9%
- residual activity [4]: 90%
- residual activity [5]: 98%
- residual activity [7]: 82%
- residual activity [8]: 93%
- residual activity [11]: 86%
- residual activity [12]: 100%
- residual activity [13]: 93%
- inhibition [14]: -1.33%
- residual activity [15]: 100%
SMILES: CNC(=O)COc1cc2cc(Nc3nc(N4CCC(C(=O)N(C)C)CC4)ncc3Cl)cc(OC)c2n(C)c1=O
- activity at 10 µM [2]: 84% (not active)
- residual activity [6]: 15%
- residual activity [9]: 113%
- residual activity [10]: 85%
- residual activity [16]: 124%
